Among the data in patent US7772271B2 (priority 2004, dated 2010) are melting point values, retold here.

`CCCS(=O)(=O)Nc1cc(C)c(-c2c(C#N)c3ccc(Oc4ncccc4C#N)cc3n2C2CCC2)cc1C` [Compound 3335]: the melting point (commonly the temperature, or range, at which the solid turns liquid) was 227 to 230 °C. Regarding `CCn1c(-c2ccc(NC(=O)C3CC3)cc2)c(C#N)c2ccc(OCCN(C)CCN(C)C)cc21` [Compound 1413], the melting point lay in the range of 90.2 to 95.4 °C. As for `CCCS(=O)(=O)Nc1ccc(-c2c(C#N)c3ccc(Oc4nccnc4C#N)cc3n2C2CC2)c(C)c1` [Compound 3305], the melting point was in the range of 225 to 228 °C. In turn, `CCOc1ccc2c(C#N)c(-c3ccc(NC(=O)OC4CCN(S(=O)(=O)C5CC5)CC4)cc3)n(C3CCC3)c2c1` [Compound 3071] gave a melting point of 236 to 241 °C. As for `CC(C)OC(=O)Nc1ccc(-c2c(C#N)c3ccc(N4CCCCC4)cc3n2CC2CC2)cc1` [Compound 2892], the melting point is 145 to 148 °C. With `CS(=O)(=O)Nc1ccc(-c2c(C#N)c3ccc(OC(F)F)cc3n2CC2CCCO2)cc1` (centres unmarked) [compound 1334, N-{4-[3-cyano-6-difluoromethoxy-1-(tetrahydro-furan-2-ylmethyl)-1H-indole-2-yl]-phenyl}-methanesulfonamide], the melting point fell in the range of 87 to 88 °C. For the compound `CCn1c(-c2ccc(N3CCCS3(=O)=O)cc2)c(C#N)c2ccc(Oc3nccnc3C#N)cc21` [Compound 3196], the melting point lay within 232 to 236 °C. `COCCOc1ccc2c(C#N)c(-c3ccc(C(=O)N4CCOCC4)cc3)n(C3CCC3)c2c1` [Compound 2754] returned a melting point of 148 to 150 °C. With `Cc1cc(Nc2ccc(-c3c(C#N)c4ccc(Oc5nccnc5C#N)cc4n3C3CCC3)cc2)n(C)n1` [Compound 3286] the figure was 233 to 235 °C; with `CCn1ccnc1COc1ccc2c(C#N)c(-c3ccc(NC(=O)OC(C)C)cc3)n(C3CCC3)c2c1` [Compound 2881], 197 to 203 °C; with `CCCS(=O)(=O)Nc1ccc(-c2c(C#N)c3ccc(-c4ncccc4C#N)cc3n2C2CCC2)cc1` [Compound 3244], 223 to 225 °C. `C[C@@H](OC(=O)Nc1ccc(-c2c(C#N)c3ccc(C(=O)N4CCSCC4)cc3n2C2CCC2)cc1)C1CC1` [Compound 2793] returned a melting point of 148 to 151 °C. In turn, `CC(C)n1c(-c2ccc(NC(=O)O[C@H](C)C3CC3)cc2)c(C#N)c2ccc(N3CCOCC3)cc21` [Compound 2942] yielded a melting point of 191 to 193 °C. The compound `CCOc1ccc2c(C#N)c(-c3ccc(N4CCCOC4=O)cc3)n(C3CCC3)c2c1` [compound 1346, 1-cyclobutyl-6-ethoxy-2-[4-(2-oxo-[1,3]oxazinan-3-yl)-phenyl]-1H-indole-3-carbonitrile] displayed a melting point of 226 to 228 °C. For `Cc1cccn(-c2ccc3c(C#N)c(-c4ccc(NC(=O)OC(C)C)cc4)n(C4CCC4)c3c2)c1=O` [Compound 3339], the melting point was 284 to 285 °C. For `CC1CCN(C(=O)c2ccc3c(C#N)c(-c4ccc(NC(=O)O[C@H](C)C5CC5)cc4)n(C4CCC4)c3c2)CC1` [Compound 3108], the melting point fell in the range of 150 to 153 °C. Under `CC(C)NC(=O)Nc1ccc(-c2c(C#N)c3ccc(OCC(O)Cn4ccnc4)cc3n2C2CCC2)cc1` (centres unmarked) [Compound 1421] stands 138 to 140 °C; under `C[C@@H](OC(=O)Nc1ccc(-c2c(C#N)c3ccc(-n4ccccc4=O)cc3n2C2CCC2)cc1)C1CC1` [Compound 3315], 237 to 238 °C. As to `CC(C)Nc1ccc(-c2c(C#N)c3ccc(Oc4nccnc4C#N)cc3n2C2CC2)cc1` [Compound 3212], the melting point was 224 to 226 °C.

`C=CCNC(=O)Oc1ccc(-c2c(C#N)c3ccc(OC4CCOCC4)cc3n2C2CCC2)cc1` [Compound 3110] registered a melting point of 167 to 168 °C. `Cc1ccnc(Oc2ccc3c(C#N)c(-c4ccc(NC(=O)O[C@H](C)C5CC5)cc4C)n(C4CCC4)c3c2)n1` [Compound 3057]: the melting point fell in the range of 95 to 112 °C.

In turn, `CCOc1ccc2c(C#N)c(-c3ccc(S(=O)(=O)N4CCC[C@@H]4CO)cc3)n(C3CCC3)c2c1` [Compound 2690] gave a melting point of 170 to 172 °C. As to `CC(C)OC(=O)Nc1ccc(-c2c(C#N)c3ccc(OCS(C)(=O)=O)cc3n2C2CCCC2)cc1` [Compound 3067], the melting point lay within 265 to 271 °C. `CCS(=O)(=O)Nc1ccc(-c2c(C#N)c3ccc(OC4CCS(=O)(=O)CC4)cc3n2C2CCC2)cc1` [Compound 3184] displayed a melting point of 259 to 264 °C. Consider `N#Cc1c(-c2ccc(OC(=O)NC3CCCC3)cc2)n(CC2CC2)c2cc(OC3CCOCC3)ccc12` [Compound 2784], for which the melting point was in the range of 169 to 171 °C. With `CCOC(CCOc1ccc2c(C#N)c(-c3ccc(NC(=O)OC(C)C)cc3)n(C3CCC3)c2c1)OCC` [Compound 2779] the figure was 146 to 150 °C; with `CCN(CC)C(=O)c1ccc2c(C#N)c(-c3ccc(NC(=O)OC(C)C)cc3)n(C3CCC3)c2c1` [Compound 2186], 189 to 191 °C. For `N#Cc1c(-c2ccc(NC3CCC3)nc2)n(C2CCC2)c2cc(Oc3ncccn3)ccc12` [Compound 3348], the melting point lay in the range of 229 to 231 °C.

Regarding `CC(C)NC(=O)Nc1ccc(-c2c(C#N)c3cc(OC4COCOC4)ccc3n2C2CCC2)cc1` [Compound 2817], the melting point is 179 to 181 °C. `CC(C)NC(=O)Nc1c(F)cc(-c2c(C#N)c3ccc(Oc4ncccn4)cc3n2C2CCC2)cc1F` [Compound 3038] came in with a melting point of 236 to 243 °C. With `CC(C)OC(=O)Nc1ccc(-c2c(C#N)c3cc(C(=O)N(C)C)ccc3n2C2CCC2)cc1` [Compound 3146] the figure was 136 to 138 °C; with `COCCOc1ccc2c(C#N)c(-c3ccc(C(=O)N[C@H](C)c4ccc(F)cc4)cc3)n(C3CCC3)c2c1` [Compound 3132], 169 to 170 °C.

In turn, `CCCNC(=O)Oc1ccc(-c2c(C#N)c3ccc(OC4CCOCC4)cc3n2CC2CC2)cc1` [Compound 2781] yielded a melting point of 147 to 148 °C. Compound `Cc1cccc(Oc2ccc3c(c2)c(C#N)c(-c2ccc(NC(=O)O[C@H](C)C4CC4)cc2)n3C2CCC2)n1` [Compound 3257] returned a melting point of 205 to 208 °C. `CCCS(=O)(=O)Nc1ccc(-c2c(C#N)c3ccc(Oc4ncccc4C#N)cc3n2C2CCC2)c(C)c1` [Compound 3273] displayed a melting point of 227 to 230 °C. Consider `CCn1c(-c2ccc(N3CCCS3(=O)=O)cc2)c(C#N)c2ccc(OCCOCCOC)cc21` [Compound 1333], for which the melting point lay within 160 to 164 °C. In the case of `CC(C)OC(=O)Nc1ccc(-c2c(C#N)c3cc(OCCCn4cncn4)ccc3n2C2CCC2)cc1` [Compound 2605], the melting point is 204 to 205 °C. The compound `CC(OC(=O)Nc1ccc(-c2c(C#N)c3ccc(OCCCCn4ccnc4)cc3n2C2CCC2)cc1)c1ccc(F)cc1` (centres unmarked) [Compound 2642] displayed a melting point of 93 to 95 °C. Take `CCn1c(-c2ccc(NC(=O)C3CC3)cc2)c(C#N)c2ccc(OCCN3CCCN(C)CC3)cc21` [Compound 1395]: the melting point lay within 95.9 to 99 °C.

Compound `CCCS(=O)(=O)Nc1ccc(-c2c(C#N)c3ccc(Oc4ncccc4C#N)cc3n2CC2CC2)c(C)c1` [Compound 3249] came in with a melting point of 235 to 239 °C.

The compound `N#Cc1c(-c2ccc(Nc3ccccc3Cl)cc2)n(C2CCC2)c2cc(OC3CCOCC3)ccc12` [Compound 3160] registered a melting point of 125 to 128 °C.
